Experimental data: publication PMC3488456 (Bioorganic & medicinal chemistry letters, 2012)

Tests used:
[1] = system: SF1; conditions: same FRET assay; cited from earlier work
[2] = Rat pharmacokinetics; format: in vivo, Sprague-Dawley rats; conditions: for clearance: Sprague-Dawley, rat, in vivo, iv, 1 mg/kg
[3] = system: LXRβ; conditions: reporter-gene assay; cited from earlier work
[4] = system: LXRα; conditions: reporter-gene assay; cited from earlier work
[5] = system: FXR; conditions: same FRET assay; cited from earlier work
[6] = system: RORα; conditions: same FRET assay; cited from earlier work
[7] = Mouse brain penetration; format: in vivo, C57Bl6 mice; conditions: mice
[8] = system: LRH1; conditions: same FRET assay; cited from earlier work
[9] = target: T1, Rev-erbα (Homo sapiens, UniProt P20393); format: cell-based
T1 sequence (P20393 1-614): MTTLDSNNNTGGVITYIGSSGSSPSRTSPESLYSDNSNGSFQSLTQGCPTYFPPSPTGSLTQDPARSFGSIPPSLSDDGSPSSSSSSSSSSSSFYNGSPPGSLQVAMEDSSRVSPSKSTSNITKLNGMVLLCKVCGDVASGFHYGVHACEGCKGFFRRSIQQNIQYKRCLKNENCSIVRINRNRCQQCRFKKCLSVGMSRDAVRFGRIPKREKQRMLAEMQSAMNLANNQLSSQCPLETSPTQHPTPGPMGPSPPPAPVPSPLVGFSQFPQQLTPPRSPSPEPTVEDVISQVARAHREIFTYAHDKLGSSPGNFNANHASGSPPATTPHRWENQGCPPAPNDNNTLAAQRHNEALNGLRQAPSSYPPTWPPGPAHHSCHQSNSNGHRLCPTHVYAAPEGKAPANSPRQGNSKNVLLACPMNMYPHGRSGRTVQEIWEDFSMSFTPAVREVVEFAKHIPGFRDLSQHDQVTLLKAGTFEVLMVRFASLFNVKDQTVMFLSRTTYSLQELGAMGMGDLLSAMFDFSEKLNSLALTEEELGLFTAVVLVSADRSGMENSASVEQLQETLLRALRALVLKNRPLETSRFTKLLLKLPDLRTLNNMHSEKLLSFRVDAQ

Structure (SMILES): CC(C)(C)OC(=O)CN(Cc1ccc(Cl)cc1)Cc1ccc([N+](=O)[O-])s1 [Compound 1]
- activity on SF1 [1]: no activity
- clearance [2]: 353 mL/min/kg
- oral bioavailability / oral absorption (in words) ([2]; rats): poor oral bioavailability
- plasma clearance (in words) ([2]; rats): very high plasma clearance
- volume of distribution (in words) ([2]; rats): high volume of distribution
- rodent pharmacokinetics (in words) ([2]; rodent): poor
- activity on LXRβ [3]: no activity
- activity on LXRα [4]: no activity
- activity on FXR [5]: no activity
- activity on RORα [6]: no activity
- brain penetration (in words) [7]: good brain penetration
- activity on LRH1 [8]: no activity

Structure (SMILES): O=C(c1cccc2ccccc12)N1Cc2ccccc2CC1COCc1ccccc1 (centres unmarked) [Compound 6d]
- clearance [2]: 39 mL/min/kg
- oral bioavailability / oral absorption (in words) ([2]; rats): poor oral absorption

Structure (SMILES): O=C(c1cccc2ccccc12)N1Cc2ccccc2CC1CNCc1ccccc1 (centres unmarked) [Compound 7d]
- clearance [2]: 43 mL/min/kg
- oral bioavailability / oral absorption (in words) ([2]; rats): poor oral absorption

Structure (SMILES): CCOC(=O)C1Cc2ccccc2CN1C(=O)c1ccno1 (centres unmarked) [Compound 3n]
- EC50 [9]: 2500 nM
